Laboratory results from patent publication US5847076A, “Regulators of the proteasome” (Board of Regents, The University of Texas System, priority 1993, dated 1998).
Read-outs that look alike come from different tables or passages of the source. Numbered stars: 1 amine (or outer) side, 2 acyl side, 3 side chain; on linkers, the order of the positions; unused ones are H or OH. Peptide text beside a SMILES is read from it. CO = O=C([*:1])[*:2]

Key:
Assay type in all cases: biochemical, bovine
[1] = test system: PA28-inactivating protein; experiment: Effect of protease inhibitors on peptidase activity (Z-Leu-Arg-MNA hydrolysis) of PA28-inactivating protein
Protocol: (§1) Assay for PA28-inactivating activity. The inactivation of PA28 was assessed by measuring residual PA28 activity after preincubation of purified PA28 with the inactivating protein. The preincubation contained purified bovine red blood cell PA28 (0.2 μg), 100 mM MES buffer, pH 5.2, 2 mM DTT, and inactivating protein or other factors, as described in this example, in a final volume of 15 μl. After preincubation at […] for 10 min., the reaction was stopped by addition of 1.0 ml of a solution containing 50 mM Trios-HCl, pH 8.0, 1 mM DTT, and 50 μM Suc-LeuLeu-Val-Tyr-AMC (or other proteasome substrate). […] The assays consisted of 50 mM MES buffer, pH 5.2, 1 mM DTT, 50 μM substrate, and 50 μl of column fractions in a final volume of 1.0 ml. Reactions were carried out at 30° C. and the release of free MNA (or other reporter group) was monitored directly by fluorescence. 1.0 unit of activity is defined as the increase in product concentration of 1.0 nM/min.

[2] = test system: PA28-inactivating protein; experiment: Effect of protease inhibitors on PA28-inactivating activity
Protocol: as §1

20S proteasome = experiment: Assay for PA700 activity (ATP-dependent activation of proteasome); details: for ability of nucleotide to promote proteasome activation by PA700: in place of ATP
Protocol: Assay for PA700 activity. PA700 activity was assayed by measuring the increase in proteasome hydrolysis of the synthetic peptide Suc-Leu-Leu-Val-Tyr-AMC after preincubation of the two components in the presence of ATP. The standard preincubation solution consisted of 45 mM Tris-HCl, pH 7.5, 5 mM DTT, 60 μM ATP, 500 μM MgCl2, 0.3 μg purified proteasome, PA700 as indicated in specific experiments, and any other component as specified, in a final volume of 50 μl. This solution was preincubated at 37° C. for 45 min. The preincubation was ended by the addition of 1.0 ml of a solution containing 50 mM Tris-HCl, pH 8.0, 1 mM DTT, and 50 μM Suc-Leu-Leu-Val-Tyr-AMC. The rate of hydrolysis of the substrate was determined directly by fluorescence as described previously. Routine control assays were conducted in parallel and consisted of the complete procedure but without PA700. […] PA700 activity is defined as the increase in proteasome activity between the two conditions.

[3] = test system: PA28-inactivating protein; experiment: Hydrolysis of synthetic peptides and proteins by PA28-inactivating protein; details: 0.05 μg enzyme, 50 μM substrate, 50 mM MES pH 5.2, 30° C.; 1.0 unit = 1.0 nM/min product
Protocol: as §1

PA28 = experiment: Assay for PA28-inactivating activity (residual PA28 activity after preincubation with peptidase)
Protocol: as §1

[4] = inhibitor 1 mM, preincubated 10 min at 30° C., Z-Leu-Arg-MNA
[5] = inhibitor 1 mM, preincubated 10 min at 30° C.
[6] = inhibitor 2 μM, preincubated 10 min at 30° C., Z-Leu-Arg-MNA

Molecule: O=c1oc(Cl)c(Cl)c2ccccc12 [3,4-Dichloroisocoumarin, 3,4-dichloroisocoumarin]
- effect on the purified PA28-inactivating protein (PA28-inactivating activity and Z-Leu-Arg-MNA hydrolysis), in words [1]: had no effect
- Peptidase Activity (% Inhibition) [1, 4]: 0 % Inhibition
- PA28-Inactivating Activity (% Inhibition) [2, 5]: 0 % Inhibition

Molecule: Nc1ncnc2c1ncn2[C@@H]1O[C@H](COP(=O)(O)OP(=O)(O)O)[C@@H](O)[C@H]1O [ADP]
- ability of nucleotide to promote proteasome activation by PA700 (20S proteasome): Neither ADP, AMP, adenosine, nor PPi promoted proteasome activation

Molecule: Nc1ncnc2c1ncn2[C@@H]1O[C@H](COP(=O)(O)O)[C@@H](O)[C@H]1O [AMP]
- ability of nucleotide to promote proteasome activation by PA700 (20S proteasome): Neither ADP, AMP, adenosine, nor PPi promoted proteasome activation

Molecule: Nc1ncnc2c1ncn2[C@@H]1O[C@H](COP(=O)(O)OP(=O)(O)OP(=O)(O)O)[C@@H](O)[C@H]1O [ATP]
- ATP concentration for maximal proteasome activation by PA700 (20S proteasome): approximately 60 μM

Molecule: NCCc1ccc(S(=O)(=O)F)cc1 [Aminoethylbenzenesulfonylfluoride, aminoethylbenzenesulfonylfluoride]
- effect on the purified PA28-inactivating protein (PA28-inactivating activity and Z-Leu-Arg-MNA hydrolysis), in words [1]: had no effect
- Peptidase Activity (% Inhibition) [1, 4]: 0 % Inhibition
- PA28-Inactivating Activity (% Inhibition) [2, 5]: 0 % Inhibition

Molecule: CC(C)[C@H](NC(=O)[C@H](CCCNC(=N)N)NC(=O)N[C@@H](Cc1ccccc1)C(=O)O)C(=O)N[C@H](C=O)CCCNC(=N)N [Antipain] ({Phe-CO}-Arg-Val-Arg-aldehyde)
- effect on the purified PA28-inactivating protein (PA28-inactivating activity and Z-Leu-Arg-MNA hydrolysis), in words [1]: inhibited the PA28-inactivating protein at concentrations in the μM range
- Peptidase Activity (% Inhibition) [1, 6]: 88 % Inhibition
- PA28-Inactivating Activity (% Inhibition) ([2]; inhibitor 2 μM, preincubated 10 min at 30° C.): 90 % Inhibition

Molecule: CC(C)C[C@H](NC(=O)[C@@H](O)[C@H](N)Cc1ccccc1)C(=O)O [Bestatin]
- Peptidase Activity (% Inhibition) [1, 6]: 19 % Inhibition

Molecule: Nc1ccn([C@@H]2O[C@H](COP(=O)(O)OP(=O)(O)OP(=O)(O)O)[C@@H](O)[C@H]2O)c(=O)n1 [CTP]
- concentration required for proteasome activation by PA700 relative to ATP (20S proteasome; higher than ATP): 100 fold
- ability of nucleotide to promote proteasome activation by PA700 (20S proteasome): could also activate the proteasome

Molecule: O=C(O)CI [Iodoacetate]
- effect on the purified PA28-inactivating protein (PA28-inactivating activity and Z-Leu-Arg-MNA hydrolysis), in words [1]: inhibited each activity
- Peptidase Activity (% Inhibition) ([1]; 10 min, 100 µM): 83 % Inhibition
- effect on PA28-inactivating activity of bovine liver extract [2]: inhibited
- PA28-Inactivating Activity (% Inhibition) ([2]; 10 min, 100 µM): 93 % Inhibition

Molecule: CC(=O)N[C@@H](CC(C)C)C(=O)N[C@@H](CC(C)C)C(=O)N[C@H](C=O)CCCNC(=N)N [Leupeptin]
- effect on the purified PA28-inactivating protein (PA28-inactivating activity and Z-Leu-Arg-MNA hydrolysis), in words [1]: inhibited the PA28-inactivating protein at concentrations in the μM range
- Peptidase Activity (% Inhibition) ([1]; inhibitor 1 μM, preincubated 10 min at 30° C., Z-Leu-Arg-MNA): 100 % Inhibition
- PA28-Inactivating Activity (% Inhibition) ([2]; inhibitor 1 μM, preincubated 10 min at 30° C.): 100 % Inhibition
- effect on PA28-inactivating activity of bovine liver extract ([2]; preliminary characterization, crude liver extract): inhibited

Molecule: O=P(O)(O)OP(=O)(O)O [PPi]
- ability of nucleotide to promote proteasome activation by PA700 (20S proteasome): Neither ADP, AMP, adenosine, nor PPi promoted proteasome activation

Molecule: COc1cc(NC(=O)[C@H](Cc2ccccc2)NC(=O)[C@H](CC(C)C)NC(=O)[C@H](Cc2ccccc2)NC(=O)CCC(=O)O)cc2ccccc12 [Suc--Phe--Leu--Phe--MNA]
- hydrolysis by PA28-inactivating protein [3]: 0 UNITS/μg

Molecule: Cc1cc(=O)oc2cc(NC(=O)[C@H](Cc3ccc(O)cc3)NC(=O)CCC(=O)O)ccc12 [Suc--Tyr--AMC]
- hydrolysis by PA28-inactivating protein [3]: 0 UNITS/μg

Molecule: Cc1ccc(S(=O)(=O)N[C@@H](CCCCN)C(=O)CCl)cc1 [TLCK]
- Peptidase Activity (% Inhibition) ([1]; 10 min, 50 µM): 88 % Inhibition

Molecule: Cc1ccc(S(=O)(=O)N[C@@H](Cc2ccccc2)C(=O)CCl)cc1 [TPCK]
- Peptidase Activity (% Inhibition) ([1]; inhibitor 50 μM, preincubated 10 min at 30° C., Z-Leu-Arg-MNA): 0 % Inhibition
- PA28-Inactivating Activity (% Inhibition) ([2]; inhibitor 50 μM, preincubated 10 min at 30° C.): 0 % Inhibition

Molecule: COc1cc(NC(=O)[C@H](CCCNC(=N)N)NC(=O)OCc2ccccc2)cc2ccccc12 [Z--Arg--MNA]
- hydrolysis by PA28-inactivating protein [3]: 0 UNITS/μg

Molecule: O=C(CNC(=O)OCc1ccccc1)NCC(=O)N[C@@H](Cc1ccccc1)C(=O)Nc1ccc2ccccc2c1 [Z--Gly--Gly--Phe--βNA] (HELM PEPTIDE1{[O=C(OCc1ccccc1)[*:2]].G.G.F.[c1ccc2cc(N[*:1])ccc2c1]}$$$$V2.0)
- hydrolysis by PA28-inactivating protein [3]: 0 UNITS/μg

Molecule: COc1cc(NC(=O)[C@H](CCCNC(=N)N)NC(=O)[C@@H]2CCCN2C(=O)CNC(=O)OCc2ccccc2)cc2ccccc12 [Z--Gly--Pro--Arg--MNA]
- hydrolysis by PA28-inactivating protein [3]: 13 UNITS/μg

Molecule: COc1cc(NC(=O)[C@H](CCCNC(=N)N)NC(=O)[C@H](CC(C)C)NC(=O)OCc2ccccc2)cc2ccccc12 [Z--Leu--Arg--MNA, Z-Leu-Arg-MNA]
- hydrolysis by PA28-inactivating protein [3]: 98 UNITS/μg

Molecule: COc1cc(NC(=O)[C@H](CCCCN)NC(=O)[C@H](CC(C)C)NC(=O)[C@H](CC(C)C)NC(=O)OCc2ccccc2)cc2ccccc12 [Z--Leu--Leu--Lys--MNA]
- hydrolysis by PA28-inactivating protein [3]: 19 UNITS/μg

Molecule: C[C@H](NC(=O)[C@H](Cc1ccccc1)NC(=O)OCc1ccccc1)C(=O)C=[N+]=[N-] [Z--Phe--Ala--CHN2]
- Peptidase Activity (% Inhibition) ([1]; inhibitor 15 μM, preincubated 10 min at 30° C., Z-Leu-Arg-MNA): 85 % Inhibition

Molecule: COc1cc(NC(=O)[C@H](Cc2ccc(O)cc2)NC(=O)[C@H](CO)NC(=O)OCc2ccccc2)cc2ccccc12 [Z--Ser--Tyr--MNA]
- hydrolysis by PA28-inactivating protein [3]: 0 UNITS/μg

Molecule: COc1cc(NC(=O)[C@H](CCCNC(=N)N)NC(=O)[C@H](CC(C)C)NC(=O)[C@@H](NC(=O)OCc2ccccc2)C(C)C)cc2ccccc12 [Z--Val--Leu--Arg--MNA, Z-Val-Leu-Arg-MNA]
- hydrolysis by PA28-inactivating protein [3]: 28 UNITS/μg

Molecule: Nc1ncnc2c1ncn2[C@@H]1O[C@H](CO)[C@@H](O)[C@H]1O [adenosine]
- ability of nucleotide to promote proteasome activation by PA700 (20S proteasome): Neither ADP, AMP, adenosine, nor PPi promoted proteasome activation

Molecule: Chymostatin
- effect on the purified PA28-inactivating protein (PA28-inactivating activity and Z-Leu-Arg-MNA hydrolysis), in words [1]: inhibited the PA28-inactivating protein at concentrations in the μM range
- Peptidase Activity (% Inhibition) ([1]; inhibitor 5 μM, preincubated 10 min at 30° C., Z-Leu-Arg-MNA): 83 % Inhibition

Molecule: trypsin
- effect of peptidase or protease on PA28 activity (PA28): rapidly inactivated PA28

B1: Carboxypeptidase B: Carboxypeptidase B from bovine pancreas (Sigma C7261) (protein, UniProt P00732 111-417, looked up)
Carboxypeptidase B: TTGHSYEKYNNWETIEAWTEQVASENPDLISRSAIGTTFLGNTIYLLKVGKPGSNKPAVFMDCGFHAREWISPAFCQWFVREAVRTYGREIHMTEFLDKLDFYVLPVVNIDGYIYTWTTNRMWRKTRSTRAGSSCTGTDLNRNFDAGWCSIGASNNPCSETYCGSAAESEKESKAVADFIRNHLSSIKAYLTIHSYSQMMLYPYSYDYKLPKNNVELNTLAKGAVKKLASLHGTTYTYGPGASTIYPASGGSDDWAYDQGIKYSFTFELRDKGRYGFVLPESQIQPTCEETMLAIKYVTSYVLEHLY
- effect of peptidase or protease on PA28 activity (PA28): each inactivated PA28 without detectably altering its molecular weight on SDS-PAGE
